Measured values: patent US11065336B2, “Conjugates for targeting and clearing aggregates” (MedImmune Limited, priority 2018, dated 2021)
Ends that are not written are not given here.

Columns and labels:
[1] = test system: amyloid proteins (hen lysozyme (hLys), human full-length alpha synuclein, human tau P301S); test: fluorometric assay of binding to amyloid proteins; conditions: 30 μM reporter solution in PBS; excitation 450 nm, emission 460-680 nm; compared to amyloid-free control
Procedure: The binding of BDB to various amyloid proteins was evaluated in vitro using a fluorometric assay.
The amyloid proteins (hen lysozyme (hLys), human full-length alpha synuclein, and human tau P301S) were individually prepared for use in the fluorometric assay. hLys (Sigma) was dissolved in 136.8 mM NaCl, 2.68 mM KCl, 0.01% w/v NaN3, pH 2 at a concentration of 1.45 mg/ml and incubated at 55° C. for 24 h in an orbital shaker at 150 rpm. Human full length alpha synuclein (Alexotech) was dissolved in 150 mM NaCl, 1% v/v triton-x100 in PBS at a concentration of 2.2 mg/ml and incubated at 37° C. for 72 h in an orbital shaker at 250 rpm. Human tau P301S was incubated at 8 mg/ml with 4 mg/ml heparin (Sigma) in PBS, 30 mM 3-(N-morpholino) propanesulfonic acid (MOPS) (pH 7.2) at 37° C. for 72 h. […]
The binding of the BDB to amyloid was detected using a fluorometric assay. The amyloid binding was detected with the use of one of three fluorescent reporters solutions (30 μM BDB, cp33 peptide (Bonetto S et al. FASEB J. 2009; 23(2):575-85) or Thioflavin T (ThT) (Sigma) solution, in PBS). […] An Envision plate reader was set to excite at 450 nm and measure emission within the range 460-680 nm. The corresponding fluorescence signals of the reporter solutions were subtracted from the experimental data.

[2] = test system: U937 cells treated with IFNγ; test: FACS binding to activated and non-activated U937 cells; format: cell-based; conditions: 10 μM BDB or 1 μM biotinylated human IgG1; 4° C., 1 h
Procedure: (§1) In order to determine the binding affinity of BDB to activated phagocytic cells, activated and non-activated U937 cells or murine primary macrophages were resuspended in the presence of BDB, biotinylated human IgG1, or PBS. The cells were then stained using either AF488-streptavidin conjugate, APC-Cy7 dead/live stain, or dead/live stain only and measured using fluorescence activated cell sorting (FACS).
(§2) Specifically, U937 cells were cultured in RPMI 1640+2 mM Glutamine+10% v/v foetal bovine serum (FCS) for 48 h in the absence or presence of […] human IFNγ (Thermo Fisher Scientific). Murine primary macrophages were cultured for 48 h in the absence or presence of 100 μg/ml LPS (Sigma). Aliquots of 5×10^5 cells were centrifuged 3 min at 300 g and resuspended either in 50 μl of 10 μM BDB, 1 μM biotinylated human IgG1 or PBS. Samples were incubated at 4° C. for 1 h and then centrifuged for 3 min at 100 g. Cells were resuspended in 50 μl of either AF488-streptavidin conjugate (Thermo Fisher Scientific, 1:500 in PBS) with APC-Cy7 dead/live stain (Thermo Fisher Scientific, 1:2000 in PBS) or dead/live stain only. Samples were incubated at 4° C. for 30 min and then centrifuged for 3 min at 100 g. Samples were washed with 200 μl cold PBS and resuspended in 250 μl PBS for analysis using a FACS Canto II, with 10^4 events recorded per condition. […]

[3] = test system: murine primary macrophages treated with LPS; test: FACS binding to activated and non-activated murine primary macrophages; format: cell-based; conditions: 10 μM BDB or 1 μM biotinylated human IgG1; 4° C., 1 h
Procedure: as §1, §2

[4] = test system: IFNγ-activated U937 cells; test: titrating BDB and IgG1 binding to IFNg stimulated U937 cells (FACS); format: cell-based, human; conditions: flow cytometry
Procedure: as §2, with “condition. Using FlowJo software, cells were visualised using forward and side scatter plots (FSC vs. SSC) and live cells were gated according to their live/dead staining. The percentage of live cells positive for AF488 signal was identified for each condition and plotted. The experiment was repeated three times and results present as the mean (+/−SD).” for “condition.”
The binding of BDB and IgG1 to IFNγ stimulated U937 cells was determined using the following methods. […]

[5] = test system: Fc receptor on IFNγ-activated U937 cells; test: competition of BDB and cp33 peptide binding with unlabelled human IgG1 (FACS); format: cell-based; conditions: 1 μM BDB or cp33; human IgG1 above approximately 10 nM
[6] = test system: IFNγ-activated U937 cells; test: colocalization of BDB and AF647-labelled hLys amyloid to the surface of U937 cells (FACS); format: cell-based, human; conditions: 1 μM BDB or cp33
Procedure: IFNγ-activated U937 cells, a human macrophage cell line, were incubated with either BDB, cp33 peptide, or vehicle in the presence or absence of Alexa Fluor™ 647-labelled hLys amyloid in order to determine if the IFNγ-activated U937 cells have increased binding of amyloid in the presence of BDB or cp33 peptide as compared to vehicle.
Specifically, hLys were labelled with the fluorescent dye alexa 647, using the Alexa Fluor™ 647 Microscale Protein Labelling Kit (Thermo Fisher Scientific) according to the manufacturer's instructions with the following modifications: after protein labelling, the solution was made up to 500 μl with PBS and the sample centrifuged at 20800 for 40 min. The supernatant was discarded and the pellet washed with PBS, resuspended in 500 μl PBS and the centrifugation repeated. The final pellet was resuspended in 100 μl of PBS.
U937 cells were cultured in RPMI 1640+2 mM Glutamine+10% v/v FCS for 48 h in the presence of […] human IFNγ. Aliquots of 5×10^5 cells were centrifuged 3 min at 300 g and resuspended in 50 μl of either 1 μM BDB or cp33 and then incubated with either 1 or 0.1 μM AF647-hLyz. The staining and FACS analysis were performed as before, this time reporting the percentage of live cells positive for both AF488-streptavidin and AF647 h-Lyz.

[7] = test system: macrophage-differentiated U937 cells; test: phagocytosis of pHrodo-red labelled hLys amyloid (IncuCyte); format: cell-based, human
Procedure: Macrophage-differentiated U937 cells were co-incubated with pHrodo-red labelled amyloid, BDB, cp33 peptide, or control in order to determine the amount of amyloid phagocytosed under various conditions. hLys amyloid fibrils were generated as described above and were labelled with the pHrodo Red Microscale Labeling Kit (ThermoFisher) according to the manufacturers instruction except that unincorporated label was removed from the labelled amyloid by three rounds of centrifuging at 20,000×g in a microfuge, discarding the supernatant and resuspending the amyloid pellet in PBS. U937 cells were differentiated into macrophages in the presence of […] M-CSF (Peprotech), 1 μg/ml PMA (Sigma) and […] IFNγ (Thermo Fisher Scientific) for 4 days. 8×10^5 cells/condition were centrifuged for 3 min at 300 g and resuspended in 50 μl of 1 μM BDB, 1 μM cp33, 1 μM BDB with 0.1 μM labelled amyloid, 1 μM cp33 with 0.1 μM labelled amyloid, 0.1 μM labelled amyloid or a 1:100 PBS dilution of a pHrodo Red-labelled E. coli suspension (Thermo Fisher Scientific). […]
The plates were placed in an IncuCyte instrument and settings programmed to scan both in phase contrast and the red fluorescence channel hourly for 48 h. […] A metric of Total Red Object Area (μm^2/well) was used to quantify the appearance of pHrodo red fluorescence within cells. […]

Compound: Cc1ccc2c(c1)sc(-c1ccc(N(C)C)cc1)[n+]2C.[Cl-] [Tht, Thioflavin T, reference compound]
- fluorescence in the presence of amyloid proteins [1]: increased fluorescence

Compound: BDB: conjugate of Compound 1 (carboxylic acid derivative of thioflavin T) added as terminal residue to biotinylated cyclic cp33 peptide derivative (SEQ ID NO:3) (AQVNSCLLLPNLLGCGDDK; not fully specified (bridges); cysteine pairing not given here; also: biotinylated, thioflavin T derivative (Compound 1) added as terminal residue, end not given here)
- fluorescence in the presence of amyloid proteins [1]: increased fluorescence
- binding to U937 cells treated with IFNγ versus non-activated (percentage of live cells positive for AF488 signal) [2]: enhanced binding
- binding to murine primary macrophages treated with LPS versus non-activated (percentage of live cells positive for AF488 signal) [3]: enhanced binding
- IFNg-activated U937 cells bound ([4]; BDB 0.01-5 μM, biotinylated IgG1 0.01-1 μM): ≤ 80%
- EC50 ([4]; read-out: half-maximal binding to IFNγ-activated U937 cells): ~0.2 µM
- displacement from binding to IFNγ-activated U937 cells by human IgG1 [5]: displaced
- cell binding with or without amyloid [6]: show cell binding irrespective of whether amyloid is present
- IFNγ-activated U937 cells binding amyloid (live cells positive for both AF488-streptavidin and AF647 h-Lyz) ([6]; 1 or 0.1 μM AF647-hLyz): Up to 14.4%
- pHrodo red signal in the absence of amyloid ([7]; 1 μM BDB or 1 μM cp33, no amyloid): did not generate a signal
- phagocytosis of amyloid (pHrodo red signal, Total Red Object Area) ([7]; 1 μM BDB with 0.1 μM labelled amyloid, compared to cp33-amyloid or amyloid alone, hourly for 48 h): enhances the phagocytosis of amyloid
